From publication PMC11998009, “Identification of a New FtsZ Inhibitor by Virtual Screening, Mechanistic Insights, and Structure–Activity Relationship Analyses” (ACS Infectious Diseases, 2025)
In brackets after ≈: the same amount, converted by molar mass. Read-outs that look alike come from different tables or passages of the source.

Key:
FtsZPa = target: T1, FtsZPa (Pseudomonas aeruginosa, UniProt P47204); assay: FtsZPa GTPase activity; assay type: biochemical; design: made in house; host or cells: Escherichia coli BL21DE3
T1 sequence (P47204 1-394): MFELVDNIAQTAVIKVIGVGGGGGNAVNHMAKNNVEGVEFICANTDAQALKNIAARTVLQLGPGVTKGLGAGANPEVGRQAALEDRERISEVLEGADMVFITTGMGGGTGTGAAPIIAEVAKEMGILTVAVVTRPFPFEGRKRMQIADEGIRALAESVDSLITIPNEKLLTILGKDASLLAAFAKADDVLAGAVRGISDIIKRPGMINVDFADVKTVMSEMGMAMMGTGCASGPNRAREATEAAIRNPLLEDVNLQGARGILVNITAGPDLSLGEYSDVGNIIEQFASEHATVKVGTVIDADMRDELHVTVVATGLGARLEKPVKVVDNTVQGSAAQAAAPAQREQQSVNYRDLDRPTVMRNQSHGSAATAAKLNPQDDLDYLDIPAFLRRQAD

S. aureus ATCC25923 [1] = assay: Single-cell time-lapse microscopy, cell area; assay type: cell-based; conditions: 2 × MIC (4 μg/mL), 5 h
Description: (§1) page 19: […] MIC method. […] The cultures were incubated at 37°C, and aliquots were […] Serial dilutions were spread on LB solid medium and the plates were incubated at 37°C O/N. Then, the number of colonies was determined. Killing curves were constructed by plotting the log10 CFU/ml vs. time. Bactericidal activity was defined as a reduction of 99.9% (≥3 log 10) of the total number of CFU/ml in the original inoculum (NCCLS, 1999). Bacteriostatic activity was defined as maintenance of the original inoculum concentration or a reduction of less than 99.9% (<3 log10) of the total number of CFU/ml in the original inoculum. Live cell imaging experiments […] Cells were diluted to OD of 0.02 in fresh TSB containing in the case of strain TD276 anhydrotetracycline 0.4 μM to induce the expression of mCherryFtsZ. After 1 hour of incubation at 37°C 2 μl of the culture was spotted onto an agar pad prepared with TSB and […] For time-lapse microscopy experiments, an inverted widefield microscope (Leica DMi8S) equipped with a 100× oil immersion objective (HC PL FLUOTAR 100x/1.32 OIL) was used. […] Images were recorded at 15-min intervals and up to 5 h. Bacteria were visualized in phase- contrast and fluorescence with the required parameters. […] S. aureus […] in fluorescence (with the required parameters for Hoechst and mCherry) using a 160x objective (HC PL APO S19

S. aureus ATCC25923 [2] = assay: Time-killing curve; assay type: cell-based
Description: as §1

[3] = tested on: S. aureus cystic fibrosis clinical isolates; assay: MIC for CF clinical isolates; assay type: cell-based
G. mellonella = assay: Toxicity in uninfected G. mellonella larvae; assay type: in vivo, Galleria mellonella; conditions: 40 mg/kg

COc1ccc(Cc2nnc(SC3=CS(=O)(=O)c4ccccc43)o2)cc1 [C11]
Effect on FtsZPa GTPase activity (FtsZPa): did not interfere with the GTPase activity
Area of the cells compared to untreated cells (S. aureus ATCC25923 [1]): significantly larger
Time-kill effect (S. aureus ATCC25923 [2]; 1- or 2-fold the MIC, 24 h): Bacteriostatic effect
Time-kill effect (S. aureus ATCC25923 [2]; half of the MIC): slight regrowth
MIC ([3]; S. aureus BG8 MRSA, single drug): 2 µg/mL (≈ 5.18 µM)
MIC ([3]; S. aureus BG9 MRSA, single drug): 2 µg/mL (≈ 5.18 µM)
MIC ([3]; S. aureus BG10 MRSA, single drug): 2 µg/mL (≈ 5.18 µM)
MIC ([3]; Staphylococcus aureus, MRSA, S. aureus BG6 MRSA, read-out: MIC): 2 µg/mL (≈ 5.18 µM)
MIC ([3]; Staphylococcus aureus, MRSA, S. aureus BG7 MRSA smv, read-out: MIC): 4 µg/mL (≈ 10.4 µM)
MIC ([3]; Staphylococcus aureus, MRSA, S. aureus BG8 MRSA, single drug, read-out: MIC): 2 µg/mL (≈ 5.18 µM)
MIC ([3]; Staphylococcus aureus, MRSA, S. aureus BG9 MRSA, single drug, read-out: MIC): 2 µg/mL (≈ 5.18 µM)
MIC ([3]; Staphylococcus aureus, MRSA, S. aureus BG10 MRSA, single drug, read-out: MIC): 2 µg/mL (≈ 5.18 µM)
MIC ([3]; Staphylococcus aureus, S. aureus BG1, read-out: MIC): 2 µg/mL (≈ 5.18 µM)
MIC ([3]; Staphylococcus aureus, S. aureus BG2, read-out: MIC): 4 µg/mL (≈ 10.4 µM)
MIC ([3]; Staphylococcus aureus, S. aureus BG3, read-out: MIC): 4 µg/mL (≈ 10.4 µM)
MIC ([3]; Staphylococcus aureus, S. aureus BG4, read-out: MIC): 8 µg/mL (≈ 20.7 µM)
MIC ([3]; Staphylococcus aureus, S. aureus BG5, read-out: MIC): 8 µg/mL (≈ 20.7 µM)
MIC ([3]; Staphylococcus aureus, S. aureus SA1, read-out: MIC): 4 µg/mL (≈ 10.4 µM)
MIC ([3]; Staphylococcus aureus, S. aureus SA2, read-out: MIC): 4 µg/mL (≈ 10.4 µM)
MIC ([3]; Staphylococcus aureus, S. aureus SA3, read-out: MIC): 2 µg/mL (≈ 5.18 µM)
MIC ([3]; Staphylococcus aureus, S. aureus SA4, read-out: MIC): 2 µg/mL (≈ 5.18 µM)
MIC ([3]; Staphylococcus aureus, S. aureus SA5, read-out: MIC): 4 µg/mL (≈ 10.4 µM)
MIC ([3]; Staphylococcus aureus, S. aureus SA6, read-out: MIC): 2 µg/mL (≈ 5.18 µM)
MIC ([3]; Staphylococcus aureus, S. aureus SA7, read-out: MIC): 2 µg/mL (≈ 5.18 µM)
MIC ([3]; Staphylococcus aureus, S. aureus SA8, read-out: MIC): 2 µg/mL (≈ 5.18 µM)
MIC ([3]; Staphylococcus aureus, S. aureus SA9, read-out: MIC): 4 µg/mL (≈ 10.4 µM)
MIC ([3]; Staphylococcus aureus, S. aureus SA10, read-out: MIC): 2 µg/mL (≈ 5.18 µM)
MIC ([3]; Staphylococcus aureus, S. aureus SA11, read-out: MIC): 4 µg/mL (≈ 10.4 µM)
MIC ([3]; Staphylococcus aureus, S. aureus SA12, read-out: MIC): 4 µg/mL (≈ 10.4 µM)
MIC ([3]; Staphylococcus aureus, S. aureus SA13, read-out: MIC): 4 µg/mL (≈ 10.4 µM)
MIC ([3]; Staphylococcus aureus, S. aureus SA14, read-out: MIC): 2 µg/mL (≈ 5.18 µM)
MIC ([3]; Staphylococcus aureus, S. aureus SA15, read-out: MIC): 4 µg/mL (≈ 10.4 µM)
MIC ([3]; Staphylococcus aureus, S. aureus SA16, read-out: MIC): 4 µg/mL (≈ 10.4 µM)
MIC ([3]; Staphylococcus aureus, S. aureus SA17, read-out: MIC): 2 µg/mL (≈ 5.18 µM)
MIC ([3]; Staphylococcus aureus, S. aureus SA18, read-out: MIC): 4 µg/mL (≈ 10.4 µM)
MIC ([3]; Staphylococcus aureus, S. aureus SA19, read-out: MIC): 2 µg/mL (≈ 5.18 µM)
MIC ([3]; Staphylococcus aureus, S. aureus SA20, read-out: MIC): 4 µg/mL (≈ 10.4 µM)
MIC ([3]; Staphylococcus aureus, S. aureus SA21, read-out: MIC): 2 µg/mL (≈ 5.18 µM)
MIC ([3]; Staphylococcus aureus, S. aureus SA22, read-out: MIC): 2 µg/mL (≈ 5.18 µM)
MIC ([3]; Staphylococcus aureus, S. aureus SA23, read-out: MIC): 4 µg/mL (≈ 10.4 µM)
MIC ([3]; Staphylococcus aureus, S. aureus SA24, read-out: MIC): 2 µg/mL (≈ 5.18 µM)
MIC ([3]; Staphylococcus aureus, S. aureus SA25, read-out: MIC): 2 µg/mL (≈ 5.18 µM)
MIC ([3]; Staphylococcus aureus, panel of clinical isolates from cystic fibrosis patients, read-out: MIC values for the vast majority of the clinical isolates): 2 to 4 µg/mL (≈ 5.18 to 10.4 µM)
Toxicity for G. mellonella (survival of not infected, treated larvae) (G. mellonella): not toxic
